In patent publication US20240390349A1, “DOSING REGIMEN OF CAPSID INHIBITOR” (priority 2023, published 2024):

Columns and labels:
clinical = conditions: human, in vivo
From the text: (§1) The objective of this study was to evaluate the pharmacokinetics (PK) of LEN during oral bridging period (OBP) to assess the adequacy of 300-mg PO once-weekly (QW) regimen for maintaining therapeutic concentrations between missed SC LEN doses. During OBP, sparse PK samples were collected at the start of OBP and every ˜10-12 weeks (without regard to a prespecified time since dose) until SC LEN was resumed. LEN plasma concentrations were summarized during OBP in the CAPELLA (N=57) and CALIBRATE (N=82) studies.
Participants required oral weekly bridging if an SC injection of LEN could not be administered for any reason within the protocol visit window. If 26 to 28 weeks elapsed since the last SC injection, and if clinically appropriate to continue LEN, participants started oral LEN 300 mg (1 tablet) once a week at the oral bridging visit(s) and continued weekly dosing on the same day of the week. If more than 28 weeks elapsed since the last SC injection, and if clinically appropriate to continue LEN, participants restarted the oral lead-in at the oral bridging visits and continued oral weekly dosing on the same day of the week, until SC LEN was administered, as shown in Table 6.
Oral bridging day was calculated from first dose date of Oral Bridging.

[1] = LEN plasma concentrations during oral bridging period, CALIBRATE (Phase 2, ARV-naive PWH); assay type: in vivo
From the text: as §1
This Example describes a Phase 2, randomized, open-label, active-controlled, multicenter study. Participants in Treatment Groups 1 and 2 required oral bridging following a clinical hold imposed by the Food & Drug Administration on injectable LEN as the SC injection of LEN could not be administered within the protocol visit window. An Oral Bridging visit was completed every 10 to 12 weeks. Participants had to have met all of the inclusion criteria and none of the exclusion criteria to be included in the study.
Participants in Treatment Groups 1 and 2 required oral weekly bridging when SC injection of LEN could not be administered due to the LEN clinical hold. • If 26 to 28 weeks elapsed since the last SC injection and if clinically appropriate to continue LEN, oral LEN 300 mg (1 tablet) once a week was started at oral bridging visits and continued weekly dosing on the same day of the week. • If more than 28 weeks elapsed since the last SC injection and if clinically appropriate to continue LEN, the oral lead-in was restarted at the oral bridging visit and the participant continued oral weekly dosing on the same day of the week, until SC LEN was administered, as shown in Table 9. • Participants continued receiving oral weekly LEN 300 mg until they received their next SC LEN injection. • Oral bridging visits were completed every 10-12 weeks. Additional visits during the oral weekly administration were conducted perd investigator's discretion.

[2] = po, Lower 90% CI of Concentration
[3] = po, Lower 90% CI of LEN concentration
[4] = SC LEN total, SC LEN resumption visit
[5] = Treatment Group 1, SC LEN resumption visit
[6] = Treatment Group 2, SC LEN resumption visit

CC(C)(C#Cc1ccc(-c2ccc(Cl)c3c(NS(C)(=O)=O)nn(CC(F)(F)F)c23)c([C@H](Cc2cc(F)cc(F)c2)NC(=O)Cn2nc(C(F)(F)F)c3c2C(F)(F)[C@@H]2C[C@H]32)n1)S(C)(=O)=O [LEN, N—((S)-1-(3-(4-chloro-3-(methylsulfonamido)-1-(2,2,2-trifluoroethyl)-1H-indazol-7-yl)-6-(3-methyl-3-(methylsulfonyl)but-1-yn-1-yl)pyridin-2-yl)-2-(3,5-difluorophenyl)ethyl)-2-((3bS,4aR)-5,5-difluoro-3-(trifluoromethyl)-3b,4,4a,5-tetrahydro-1H-cyclopropa [3,4]cyclopenta [1,2-c]pyrazol-1-yl) acetamide]
Mean LEN concentration and lower bound 90% CI versus efficacy target IQ4 (clinical): > 15.5 ng/mL | 90% CI of mean LEN concentration (clinical; 10 week): 66.1, 86.3 | 90% CI of mean LEN concentration (clinical; 20 week): 50.4, 99.3 | 90% CI of mean LEN concentration (clinical; 30 week): 29.9, 53.5 | 90% CI of mean LEN concentration (clinical; 1 day): 40.3, 51.9 | concentration at 10 day (clinical; po, Concentration, Mean (% CV)): 76.2 ng/mL | concentration at 20 day (clinical; po, Concentration, Mean (% CV)): 74.8 ng/mL | concentration at 10 day (clinical; [2]): 66.1 ng/mL | concentration at 20 day (clinical; [2]): 50.4 ng/mL | concentration at 30 day (clinical; [2]): 29.9 ng/mL | concentration at 10 week (clinical; [3]): 66.1 ng/mL | concentration at 20 week (clinical; [3]): 50.4 ng/mL | concentration at 30 week (clinical; [3]): 29.9 ng/mL | concentration at 1 day (clinical; [3]): 40.3 ng/mL | Mean LEN plasma concentration ([1]; SC LEN total (Groups 1+2), oral LEN 300 mg QW, Day 1): 27.8 (47.4) ng/mL | Lower 90% CI of Concentration [1, 4]: 43.6 ng/mL | Mean LEN plasma concentration [1, 4]: 50.7 ng/mL | Mean LEN plasma concentration ([1]; SC LEN total, Week 10): 54.9 (70.8) ng/mL | Mean LEN plasma concentration ([1]; SC LEN total, Week 20): 52.5 (77.7) ng/mL | Mean LEN plasma concentration ([1]; SC LEN total, Week 30): 50.1 (62.3) ng/mL | Mean LEN plasma concentration ([1]; Treatment Group 1 (SC LEN + [DVY→TAF]), Day 1): 28.8 (47.7) ng/mL | Lower 90% CI of Concentration [1, 5]: 38.6 ng/mL | Mean LEN plasma concentration [1, 5]: 49.4 ng/mL | Mean LEN plasma concentration ([1]; Treatment Group 1, Week 10): 50.9 (67.0) ng/mL | Mean LEN plasma concentration ([1]; Treatment Group 1, Week 20): 53.1 (84.5) ng/mL | Mean LEN plasma concentration ([1]; Treatment Group 1, Week 30): 43.7 (74.7) ng/mL | Mean LEN plasma concentration ([1]; Treatment Group 2 (SC LEN + [DVY→BIC]), Day 1): 26.7 (47.3) ng/mL | Lower 90% CI of Concentration [1, 6]: 42.7 ng/mL | Mean LEN plasma concentration [1, 6]: 52.2 ng/mL | Mean LEN plasma concentration ([1]; Treatment Group 2, Week 10): 59.3 (73.6) ng/mL | Mean LEN plasma concentration ([1]; Treatment Group 2, Week 20): 51.9 (70.2) ng/mL | Mean LEN plasma concentration ([1]; Treatment Group 2, Week 30): 56.5 (62.5) ng/mL | concentration at 1 day ([1]; human, plasma, oral, 300 mg, SC LEN total (Groups 1+2), oral LEN 300 mg QW, Day 1, read-out: Mean LEN plasma concentration): 27.8 ng/mL | concentration at 1 day ([1]; human, plasma, oral, 300 mg, Treatment Group 1, Day 1, read-out: Lower 90% CI of Concentration): 25.2 ng/mL | concentration at 10 week ([1]; human, plasma, oral, 300 mg, Treatment Group 1, Week 10, read-out: Lower 90% CI of Concentration): 41.1 ng/mL | concentration at 10 week ([1]; human, plasma, oral, 300 mg, Treatment Group 1, Week 10, read-out: Mean LEN plasma concentration): 50.9 ng/mL | concentration at 20 week ([1]; human, plasma, oral, 300 mg, Treatment Group 1, Week 20, read-out: Lower 90% CI of Concentration): 39.6 ng/mL | concentration at 20 week ([1]; human, plasma, oral, 300 mg, Treatment Group 1, Week 20, read-out: Mean LEN plasma concentration): 53.1 ng/mL | concentration at 30 week ([1]; human, plasma, oral, 300 mg, Treatment Group 1, Week 30, read-out: Mean LEN plasma concentration): 43.7 ng/mL | concentration at 1 day ([1]; human, plasma, oral, 300 mg, Treatment Group 2, Day 1, read-out: Lower 90% CI of Concentration): 23 ng/mL | concentration at 10 week ([1]; human, plasma, oral, 300 mg, Treatment Group 2, Week 10, read-out: Lower 90% CI of Concentration): 46.4 ng/mL | concentration at 10 week ([1]; human, plasma, oral, 300 mg, Treatment Group 2, Week 10, read-out: Mean LEN plasma concentration): 59.3 ng/mL | concentration at 20 week ([1]; human, plasma, oral, 300 mg, Treatment Group 2, Week 20, read-out: Lower 90% CI of Concentration): 40.2 ng/mL | concentration at 20 week ([1]; human, plasma, oral, 300 mg, Treatment Group 2, Week 20, read-out: Mean LEN plasma concentration): 51.9 ng/mL
